Test: in vitro
Conditions: human, hela cells, % viability

| Compound | viability at 28.5 h, 10 µM [%] |
| --- | --- |
| S=c1[nH]nc(CN2CCSCC2)n1-c1ccc(Cl)cc1 [CBK013868] | 105 |
| Cc1csc(C(Cc2ccsc2)NCC2=CCCOC2)n1 (stereo not drawn) [CBK282439] | 101 |
| C=CCn1c2cc(C)oc2c2cnn(CC(=O)N(C)C)c(=O)c21 [CBK283326] | 101 |
| O=C(NCC1(O)CCSC1)c1c[nH]nc1-c1cc2ccccc2o1 (stereo not drawn) [CBK306159] | 88.3 |
| COc1ccc(CCN(Cc2ccc(Cl)c(Cl)c2)C(=O)Nc2cccnc2)cc1OC [CBK158797] | 96.1 |
| COc1ccc(C2(C(=O)NCc3ccc(Cl)c(Cl)c3)CC2)cc1 [CBK149827] | 98.7 |
| O=[N+]([O-])c1cccnc1Oc1cccc(Cl)c1Cl [CBK002596] | 98 |
| CN(C)CC1CCCCN1C(=O)C1C2CCCCC21 (stereo not drawn) [CBK282087] | 97.7 |
| Cc1cc(OC(F)(F)F)ccc1S(=O)(=O)Nc1nc(CC(=O)O)cs1 [CBK000575] | 87.8 |
| O=C(N[C@H]1CO[C@H]2[C@@H]1OC[C@@H]2Nc1nccc(-c2cccs2)n1)C1CC1 [CBK289517] | 95 |
| O=[N+]([O-])c1ccc(CN2CCC(Oc3cncc(OCC4COc5ccccc5O4)n3)C2)cc1 (stereo not drawn) [CBK084369] | 99.3 |
| COC(=O)Cn1c(=N)n(CCN2CCOCC2)c2ccccc21 [CBK262447B] | 109 |
| Cc1cc(NC(=O)C(C)(C)Oc2ccc(Cl)cc2)nc2c1c(=O)oc1ccccc12 [CBK291132] | 112 |
| CC(C)NCC(O)COCc1ccc(Cl)cc1 (stereo not drawn) [CBK261406C] | 108 |
| O=C(O)CC/C(=N\Nc1ccc([N+](=O)[O-])cc1)c1ccc(F)cc1 [CBK017075] | 110 |
| c1csc(-c2cncc(NCCCN3CCOCC3)n2)c1 [CBK065623] | 102 |
| CC(NC(=O)c1ccccc1Br)c1nnc(SCc2ccc([N+](=O)[O-])cc2)n1C (stereo not drawn) [CBK267810] | 103 |
| O=C1COCC(=O)N1c1ccccn1 [CBK006233] | 89.2 |
| O=C(C[C@@H]1O[C@H](CNS(=O)(=O)c2ccc(Cl)cc2)[C@@H](O)[C@H]1O)N1CCCC1 [CBK288911] | 94.2 |
| Cc1csc(NC(=O)CN2CC=C(c3ccc(C)o3)CC2)n1 [CBK283606] | 96.5 |
| CS(=O)(=O)N(CC(=O)NCc1ccccn1)c1ccc(I)cc1 [CBK265369] | 78.8 |

| Compound | viability at 28.5 h, 10 µM [%] |
| --- | --- |
| COCCn1c(SC(C)C(=O)N2CCNC2=O)nc2ccccc21 (stereo not drawn) [CBK305832] | 85.7 |
| O=C(O)C1CCN(S(=O)(=O)c2ccc(F)cc2)CC1 [CBK100196] | 102 |
| O=C(O)CC1OC(=O)c2cc3c(cc21)C(=O)OC3CC(=O)O (stereo not drawn) [CBK262928] | 100 |
| COc1cccc(Oc2nccnc2/C=C/c2ccccc2)c1 [CBK106877] | 107 |
| Cc1cc(NC(=O)CN2CCN(Cc3ccc(Cl)nc3)CC2)no1 [CBK305504] | 104 |
| CC(C)NC(=O)C1(Cc2ccc(-c3ccccc3)cc2)CCN(C(=O)C2CCCC2)CC1 [CBK285751] | 101 |
| Fc1ccc(-c2nccnc2NCc2ccncc2)cc1Cl [CBK037422] | 95.5 |
| O=S(=O)(Nc1cc(F)cc(C(F)(F)F)c1)c1cc2c(N3CCNCC3)nccc2s1 [CBK038102C] | 95.5 |
| CCN(CC)S(=O)(=O)c1ccc2c(c1)CCCN2C(=O)c1ccc(C#N)cc1 [CBK295161] | 85.9 |
| CC(C)C(=O)N1CC2(CCN(CCCCC3NC(=O)NC3=O)CC2)c2ccccc21 (stereo not drawn) [CBK131471] | 111 |
| CCN1CC2(CCN(CCOc3ccccc3)CC2)c2ccccc21 [CBK122705] | 100 |
| Cc1cc(O)nc(SCCCSc2ccccc2)n1 [CBK267415] | 114 |
| CN1CCC(N(C)C(=O)c2ccc(-c3ccccc3CO)cc2)C1 (stereo not drawn) [CBK307432] | 103 |
| CCOC(=O)c1sc(C)c(C(N)=O)c1/N=C1\CCCN1 [CBK020893] | 105 |
| CC(=O)N1C[C@@H](c2cccc(C)c2)[C@@H]2CN(Cc3cccnc3)CC[C@@H]21 [CBK283368] | 89.7 |
| O=C(NCc1nc2ccccc2[nH]1)c1cc(-c2ccc(Cl)cc2)cnc1NCc1ccc2c(c1)OCO2 [CBK106377] | 102 |
| N#CCSc1nc(-c2cccnc2)ccc1C(=O)O [CBK269387] | 106 |
| Cc1ccc(S(=O)(=O)N2CCN(CCCc3ccccc3)CC2)cc1 [CBK263453] | 95.2 |
| CCCCC(=O)N(C)c1c(CC)nc2c(OCCn3cccc3)cccn12 [CBK147785] | 102 |
| Cn1cc(NC(=O)CCn2c(C(F)F)cc3cccnc32)cn1 [CBK284740] | 90.2 |
| CCOC(=O)c1cnn(C2CCCN(Cc3cccc(O)c3)C2)c1 (stereo not drawn) [CBK304046] | 100 |

| Compound | viability at 28.5 h, 10 µM [%] |
| --- | --- |
| Cc1ccccc1CN(C)C(C)C(=O)Nc1ccc(S(N)(=O)=O)cc1 (stereo not drawn) [CBK304589] | 91.7 |
| CN1CCN(c2nc(-c3ccc4c(c3)CCCC(=O)N4)cs2)CC1 [CBK305600] | 98.6 |
| O=C(O)CCN/C(=N\S(=O)(=O)c1ccccc1)c1ccccc1 [CBK266111] | 92.2 |
| CS(=O)(=O)c1ccc(-n2ncc(-c3ccc(C(F)(F)F)cc3)n2)cc1 [CBK112698] | 90 |
| CS(=O)(=O)Cc1cccc(C(=O)Nc2ccc(Oc3ccccc3)cc2)c1 [CBK297111] | 87.5 |
| CCC1=NC(c2ccccc2Cl)N(O)C1(C)C (stereo not drawn) [CBK026466] | 97.5 |
| Cc1cccc(C2(c3cccc(C)c3)CC2C(=O)NCc2cccnc2)c1 (stereo not drawn) [CBK262382] | 106 |
| CN(C(=O)CSc1nnn(C)n1)c1ccccc1 [CBK058129] | 117 |
| CC1CCC(C(=O)NC(Cc2ccccc2)C(=O)O)CC1 (stereo not drawn) [CBK287080] | 90.5 |
| CC(C)c1ncc(CN2CCC(CC(=O)N3CCN(c4ccccc4)CC3)CC2)cn1 [CBK286048] | 101 |
| O=C(Nc1ccc(S(=O)(=O)N2CCCCCC2)cc1)c1ccc(NS(=O)(=O)c2ccccc2)cc1 [CBK268018] | 90.4 |
| Cc1nn(Cc2c(F)cccc2Cl)c(C)c1NC(=S)Nc1ccc(S(N)(=O)=O)cc1 [CBK267121] | 101 |
| CCCCc1ccc(Nc2ncnc3nc[nH]c23)cc1 [CBK288006] | 96.3 |
| CC(/C=C/c1ccccc1)=N\NC(=O)C(C)Oc1ccc(Br)cc1 (stereo not drawn) [CBK261212] | 99.7 |
| O=c1oc2ccccc2c(NCCCN2CCOCC2)c1[N+](=O)[O-] [CBK261471] | 120 |
| COc1ccccc1-c1nccnc1N[C@@H](CO)C(C)C [CBK089034] | 93.6 |
| c1ccc2oc(CN3Cc4nc[nH]c4C[C@H]3c3nc(-c4ccc5c(c4)OCO5)no3)cc2c1 [CBK288998] | 81.5 |
| O=C(CCn1cnc2ccccc21)NNC(=O)Nc1cccc(C(F)(F)F)c1 [CBK269093] | 93.9 |
| CCOC(=O)c1c(C)nc2n(CCN3CCCCC3)c3ccccc3n12 [CBK278238C] | 91.3 |
| COc1ccc(-c2cnc(NCC3CC3)c(C(=O)N3CCN(C)CC3)c2)cc1 [CBK076327] | 96.6 |
| COCCn1c(C)cc(C(=O)CSc2cc(C)c3ccccc3n2)c1C [CBK266437] | 70.3 |

| Compound | viability at 28.5 h, 10 µM [%] |
| --- | --- |
| COc1ccccc1C(C)CN(C)C (stereo not drawn) [CBK011948C] | 91.2 |
| CN(Cc1cccc(C(F)(F)F)c1)C(=O)c1cn(CC2CCCO2)nn1 (stereo not drawn) [CBK304360] | 99.8 |
| COc1ccc(-c2ccc3c(c2)C(=O)N2CCN(C(=O)CC(C)(C)C)C[C@@H]2C(=O)N3)cc1 [CBK289584] | 94.6 |
| COc1cccc(Oc2nccnc2-c2cnn(C)c2)c1 [CBK107071] | 98 |
| CCOC(=O)NC(=S)NC(=O)C(C)(C)C [CBK020037] | 100 |
| Cc1cccc(C(=O)N2CCC(N(C)Cc3ccc(-c4ccc(S(C)(=O)=O)cc4)nc3)CC2)n1 [CBK165937T] | 81.5 |
| COc1ccc(-c2cccc(N3CCN(CCN4CCCC4)CC3)n2)cc1OC [CBK037680] | 84.9 |
| Cn1c(=N)n(CC(=O)O)c2ccccc21 [CBK262926B] | 90.4 |
| COc1cc(CNS(=O)(=O)c2cc3c(NCCN(C)C)nccc3s2)cc(OC)c1OC [CBK038246C] | 91.8 |
| Cn1c(=O)[nH]c(=O)c2c1nc(NC1CCCCC1)n2CCCc1ccccc1 [CBK269500] | 92.7 |
| CCOC(=O)N1CCC(NC(=O)N2CCN(CCc3ccccc3)CC2)CC1 [CBK158938] | 89.8 |
| Cn1ccnc1C1(O)CC2CCC(C1)N2C(=O)Nc1ccc(F)cc1 (stereo not drawn) [CBK284051] | 85.7 |
| O=c1[nH]c(=O)c2cc(S(=O)(=O)N3CCc4[nH]c5ccccc5c4C3)ccc2[nH]1 [CBK285949] | 96.7 |
| O=C(COc1cc(Cl)c(Cl)cc1Cl)N1CCN(c2ccc([N+](=O)[O-])cc2)CC1 [CBK263783] | 97.1 |
| CCCc1c(C(=O)NC2CC2)cnn1-c1ccc(Cl)cc1 [CBK006334] | 112 |
| CN(C)S(=O)(=O)c1ccc(C(=O)C2=C(O)C(=O)N(Cc3cccnc3)C2c2ccncc2)cc1 (stereo not drawn) [CBK264714] | 95.4 |
| Cc1ccc(OCC(=O)NC(Cc2ccccc2)C(=O)O)cc1 (stereo not drawn) [CBK217681] | 102 |
| CC1CCN(S(=O)(=O)c2ccc(NC(=O)c3cccc(NC(=O)C(C)C)c3)cc2)CC1 [CBK265653] | 88 |
| CC(=O)Nc1cccc(C(=O)N2CCN(CC3CCCO3)CC2)c1 (stereo not drawn) [CBK305158] | 96 |
| CCn1c(=N)c(C(=O)NCCOC)cc2c(=O)n3ccccc3nc21 [CBK287605] | 89.5 |
| O=C(Nc1cc(N2CCNCC2)ncn1)c1cnc2ccccc2c1 [CBK004209T] | 80.5 |

Same assay, conditions: human, hela cells, % viability, bulk resorufin, single well

| Compound | viability at 28.5 h, 10 µM [%] |
| --- | --- |
| O=C1NC(=O)N(Cc2ccccc2)C(=O)/C1=C/c1ccc(O)c(O)c1 [CBK278181] | 117 |
| O=C1NC(=O)N(c2ccc(F)cc2)C(=O)/C1=C/c1ccccc1OCc1ccc([N+](=O)[O-])cc1 [CBK263846] | 93.5 |
| c1cc2c(cc1-c1ccc3c(c1)OCO3)COC1(CCNCC1)O2 [CBK060925] | 95.9 |

From article PMC12040169 (PLOS Biology, 2025)
